PubChem BioAssay (NCI)
Several values for one entry are separate records, joined by “and”; a condition that tells them apart may be missing. Equal entries are not always repeated.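 Values below derive from 48-hour exposures of cells grown in 96-well plates, with endpoints linearly interpolated between the two concentrations bracketing the appropriate inhibition level. Abbreviation: GI50, concentration required for 50% inhibition of growth. The concentration for full growth arrest is given as TGI.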

Tests used:
Experiment in all cases: NCI tumour cell line growth inhibition, 48 h
M19-MEL melanoma = test system: M19-MEL melanoma
XF 498 CNS = test system: XF 498 CNS
RXF-631 renal = test system: RXF-631 renal
DMS 273 small cell lung = test system: DMS 273 small cell lung
SNB-78 CNS = test system: SNB-78 CNS
DLD-1 colon = test system: DLD-1 colon
LXFL 529 NSCLC = test system: LXFL 529 NSCLC
DMS 114 small cell lung = test system: DMS 114 small cell lung
HOP-18 NSCLC = test system: HOP-18 NSCLC
P388/ADR leukemia = test system: P388/ADR leukemia
SN12K1 renal = test system: SN12K1 renal
P388 leukemia = test system: P388 leukemia

Structure (SMILES) | GI50 (M19-MEL melanoma) | TGI (M19-MEL melanoma) | TGI (XF 498 CNS) | TGI (RXF-631 renal) | GI50 (DMS 273 small cell lung) | TGI (DMS 273 small cell lung) | GI50 (SNB-78 CNS) | TGI (SNB-78 CNS) | GI50 (DLD-1 colon) | TGI (DLD-1 colon) | GI50 (LXFL 529 NSCLC) | TGI (LXFL 529 NSCLC) | GI50 (DMS 114 small cell lung) | TGI (DMS 114 small cell lung) | GI50 (HOP-18 NSCLC) | TGI (HOP-18 NSCLC) | TGI (P388/ADR leukemia) | TGI (SN12K1 renal) | TGI (P388 leukemia)
CC(=O)C(O)N1C(=O)C=CC1=O (stereo not drawn) | 16.4 µM | 30.4 µM and 17.6 µM | 31.5 µM | 33.9 µM | 18 µM | 32.2 µM and 28.1 µM | 19.9 µM | 37 µM and 54.9 µM | 9.71 µM | 23.6 µM and 3.97 µM | 15.3 µM | 28.6 µM and 3.32 µM | 19.6 µM | 37.7 µM and 11.1 µM | 17.2 µM | 31.3 µM and 40.5 µM | – | – | –
NC(=O)CCCC(NCc1c2ccccc2nc2ccccc12)C(=O)O (stereo not drawn) | – | > 100 µM | 61.8 µM | – | – | 86.7 µM | – | – | – | > 100 µM | – | > 100 µM | – | > 100 µM | – | – | – | – | –
CCCCCCCSc1nc2c(C(=O)OCC)ncn2c2ccccc12 | – | > 100 µM | > 100 µM | – | – | > 100 µM | – | – | – | – | – | > 100 µM | – | > 100 µM | – | – | – | – | –
CC1C(O)C2(Oc3cc4c(c5c3[C@@H](CC5O)[C@H]2C)CCC2Cc3nc5c(nc3C[C@@]42C)CC2CCC3C4=C[C@H]6O[C@@]7(O[C@@](C)(CO)C[C@@H]7O)C(C)[C@@]6(O)[C@]4(C)[C@@H](O)CC3[C@]2(C)C5)OC1(C)C (stereo partly drawn) | – | > 3.67 µM | 0.343 µM | – | – | 0.114 µM | – | 0.584 µM | – | > 3.67 µM | – | – | – | 0.904 µM | – | > 3.67 µM | 1.84 µM | 0.194 µM | 0.435 µM
NC(=O)NN=C(CS)CS | – | 37.1 µM | – | – | – | 45.1 µM | – | > 100 µM | – | > 65.5 µM | – | – | – | 87.5 µM | – | 66.4 µM | > 100 µM | 41.6 µM | 47.4 µM
Cc1c2cc[n+](CCN3CCCCC3)cc2c(C)c2c1[nH]c1ccc(O)cc12 | – | 4.93 µM | – | – | – | 17.1 µM | – | 64.1 µM | – | 49.6 µM | – | – | – | 21.6 µM | – | 37 µM | 31.8 µM | 20.3 µM | –
Cc1ccc(Oc2ccc(C)cc2[N+](=O)[O-])cc1 | – | > 100 µM | 64.5 µM | > 100 µM | – | > 100 µM | – | 95 µM | – | > 100 µM | – | > 100 µM | – | > 100 µM | – | > 100 µM | – | – | –
